Counter-ions that a name gives are not always drawn.

The target in the experiment is T1, TXA2 receptors (Homo sapiens, UniProt P21731).
T1 construct: from tissue; host or cells: human platelets
T1 sequence (P21731 1-343): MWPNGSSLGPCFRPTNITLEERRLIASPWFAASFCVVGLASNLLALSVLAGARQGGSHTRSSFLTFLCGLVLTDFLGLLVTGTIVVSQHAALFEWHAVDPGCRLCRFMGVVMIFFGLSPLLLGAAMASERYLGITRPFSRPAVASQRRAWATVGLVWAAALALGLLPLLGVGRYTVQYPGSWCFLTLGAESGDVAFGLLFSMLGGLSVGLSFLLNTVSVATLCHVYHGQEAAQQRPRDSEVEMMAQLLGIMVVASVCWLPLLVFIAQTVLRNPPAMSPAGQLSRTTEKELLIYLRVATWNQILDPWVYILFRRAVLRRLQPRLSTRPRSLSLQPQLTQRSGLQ
Put plainly: human platelet binding assay ([^125 I]PTA-OH receptor ligand). As to conditions: 50% inhibition of specific [^125 I]PTA-OH binding; human platelets. Here is the method:
As indicated above, compounds of the formula (I) have biological activity that is indicative of an ability to antagonise TXA2 receptors. […] The platelet binding assay used was essentially the method described by Mais et al, J. Pharm. Exp. Ther., 1985, 235(3), 729-734 where [^125 I]PTA-OH was used as the receptor ligand. The IC50 values represent the concentration which produces a 50% inhibition of specific [^125 I]PTA-OH binding. The compounds of Examples 1 to 6 were tested in the human platelet binding assays as described above and the results obtained are shown in the Table below: […]
Usually IC50 stands for the point on the concentration scale where inhibition reaches its midpoint. Low values mean inhibition by little substance, high ones a need for much substance. The compound `COC(=O)c1ccc(CN2CCc3ccc(S(=O)(=O)Nc4cccc(Cl)c4)cc3C2)o1` [Example 4, methyl-5-[[7-(3-chlorophenylsulphamoyl)-1,2,3,4-tetrahydroisoquinolin-2-yl]methyl]-2-furoate] yielded an IC50 of 5000 nM.

Consider `O=C(O)c1ccc(CN2CCc3ccc(S(=O)(=O)Nc4cccc(Cl)c4)cc3C2)cc1` [Example 3, 4-[[7-(3-Chlorophenylsulphamoyl)-1,2,3,4-tetrahydroisoquinolin-2-yl]methyl]benzoic acid], for which the IC50 amounted to 4000 nM.

In turn, `O=C(O)c1ccnc(CN2CCc3ccc(S(=O)(=O)Nc4cccc(Cl)c4)cc3C2)c1` [Example 6, 2-[[7-(3-chlorophenylsulphamoyl)-1,2,3,4-tetrahydroisoquinolin-2-yl]methyl]isonicotinic acid hydrochloride] returned an IC50 of 2900 nM.

Regarding `O=C(O)c1ccccc1CN1CCc2ccc(S(=O)(=O)Nc3cccc(Cl)c3)cc2C1` [Example 1, 2-[[7-(3-chlorophenylsulphamoyl)-1,2,3,4-tetrahydroisoquinolin-2-yl]methyl]benzoic acid], the IC50 is 2600 nM.

Turning to `O=C(O)c1ccc(CN2CCc3ccc(S(=O)(=O)Nc4cccc(Cl)c4)cc3C2)o1` [Example 5, 5-[[7-(3-chlorophenylsulphamoyl)-1,2,3,4-tetrahydroisoquinolin-2-yl]methyl]-2-furoic acid], the IC50 was 760 nM.

`O=C(O)c1cccc(CN2CCc3ccc(S(=O)(=O)Nc4cccc(Cl)c4)cc3C2)c1` [Example 2, 3-[[7-(3-Chlorophenylsulphamoyl)-1,2,3,4-tetrahydroisoquinolin-2-yl]methyl]benzoic acid] registered a half-maximal inhibitory concentration (IC50) of 500 nM.
